Experimental data published in ChEMBL document CHEMBL1201862, “PubChem BioAssay data set” (2004).
The source made the active and inactive calls.

What was measured:
Hexokinase HKDC1 = molecular target: T1, Hexokinase HKDC1 (Homo sapiens, UniProt Q2TB90); assay: SAR analysis of small molecule inhibitors of hexokinase domain containing I (HKDC1). [Related pubchem assays (depositor defined):AID493160, AID493190]; assay type: functional
T1 sequence (Q2TB90 whole entry): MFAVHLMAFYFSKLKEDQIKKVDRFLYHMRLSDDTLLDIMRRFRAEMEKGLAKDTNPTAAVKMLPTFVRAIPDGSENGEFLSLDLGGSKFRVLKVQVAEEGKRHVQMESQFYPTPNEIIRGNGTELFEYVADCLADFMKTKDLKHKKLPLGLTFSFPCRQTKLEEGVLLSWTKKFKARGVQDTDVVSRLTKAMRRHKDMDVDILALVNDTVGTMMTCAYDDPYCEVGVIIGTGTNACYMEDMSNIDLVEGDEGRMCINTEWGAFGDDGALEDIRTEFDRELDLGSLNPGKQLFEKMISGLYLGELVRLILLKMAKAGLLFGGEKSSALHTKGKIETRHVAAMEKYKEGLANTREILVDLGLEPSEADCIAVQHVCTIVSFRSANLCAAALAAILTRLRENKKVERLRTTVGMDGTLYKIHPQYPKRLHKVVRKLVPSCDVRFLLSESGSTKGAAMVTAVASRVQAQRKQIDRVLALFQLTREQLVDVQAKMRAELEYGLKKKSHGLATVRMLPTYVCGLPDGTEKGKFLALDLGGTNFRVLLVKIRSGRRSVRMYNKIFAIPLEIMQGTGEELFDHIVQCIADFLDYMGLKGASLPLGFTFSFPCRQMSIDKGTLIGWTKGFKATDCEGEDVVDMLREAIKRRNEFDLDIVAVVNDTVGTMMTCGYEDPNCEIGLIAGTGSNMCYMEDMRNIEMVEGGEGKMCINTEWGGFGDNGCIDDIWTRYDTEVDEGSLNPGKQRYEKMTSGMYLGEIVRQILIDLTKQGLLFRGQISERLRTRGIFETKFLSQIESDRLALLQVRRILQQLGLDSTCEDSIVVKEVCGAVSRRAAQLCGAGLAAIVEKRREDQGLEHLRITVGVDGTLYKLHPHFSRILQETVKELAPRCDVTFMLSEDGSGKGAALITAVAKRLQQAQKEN

Hexokinase-1 = Hexokinase-1 (Homo sapiens, UniProt P19367); assay: SAR analysis of small molecule inhibitors of hexokinase domain containing I (HKDC1) in the hexokinase 1 selectivity assay. [Related pubchem assays (depositor defined):AID493160, AID493190]; assay type: functional
Chain of Hexokinase-1 (P19367 whole entry, the tested form may be a part): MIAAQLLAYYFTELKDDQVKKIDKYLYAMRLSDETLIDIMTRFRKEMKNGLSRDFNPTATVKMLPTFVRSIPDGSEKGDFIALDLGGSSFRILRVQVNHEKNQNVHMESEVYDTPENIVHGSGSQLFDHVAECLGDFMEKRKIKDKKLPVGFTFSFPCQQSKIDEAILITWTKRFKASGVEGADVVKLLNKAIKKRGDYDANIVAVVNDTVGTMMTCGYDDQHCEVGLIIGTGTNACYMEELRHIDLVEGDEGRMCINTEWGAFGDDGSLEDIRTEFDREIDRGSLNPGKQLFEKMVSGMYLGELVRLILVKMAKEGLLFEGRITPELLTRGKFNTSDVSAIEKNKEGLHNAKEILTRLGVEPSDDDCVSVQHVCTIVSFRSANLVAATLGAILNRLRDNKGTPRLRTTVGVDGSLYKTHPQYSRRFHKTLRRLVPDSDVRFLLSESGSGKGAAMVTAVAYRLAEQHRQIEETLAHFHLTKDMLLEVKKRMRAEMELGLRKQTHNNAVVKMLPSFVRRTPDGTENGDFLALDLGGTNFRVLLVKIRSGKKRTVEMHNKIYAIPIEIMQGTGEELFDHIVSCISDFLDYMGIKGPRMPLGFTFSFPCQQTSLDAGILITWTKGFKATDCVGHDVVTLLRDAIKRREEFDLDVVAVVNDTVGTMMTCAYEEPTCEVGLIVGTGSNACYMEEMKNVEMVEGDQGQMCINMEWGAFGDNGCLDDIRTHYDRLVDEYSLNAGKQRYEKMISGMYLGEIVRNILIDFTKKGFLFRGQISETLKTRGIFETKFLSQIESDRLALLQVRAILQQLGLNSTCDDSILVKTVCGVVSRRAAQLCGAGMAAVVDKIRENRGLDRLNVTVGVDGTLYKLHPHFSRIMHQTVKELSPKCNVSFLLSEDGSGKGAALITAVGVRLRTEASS

DNA topoisomerase = DNA topoisomerase (Yersinia pestis, UniProt A0A2S9PM60); assay: Y. pestis Topo-I inhibitors, cleavage product readout, dose response, biochemical, cherry-pick (AID 588525)
Chain of DNA topoisomerase (A0A2S9PM60 whole entry): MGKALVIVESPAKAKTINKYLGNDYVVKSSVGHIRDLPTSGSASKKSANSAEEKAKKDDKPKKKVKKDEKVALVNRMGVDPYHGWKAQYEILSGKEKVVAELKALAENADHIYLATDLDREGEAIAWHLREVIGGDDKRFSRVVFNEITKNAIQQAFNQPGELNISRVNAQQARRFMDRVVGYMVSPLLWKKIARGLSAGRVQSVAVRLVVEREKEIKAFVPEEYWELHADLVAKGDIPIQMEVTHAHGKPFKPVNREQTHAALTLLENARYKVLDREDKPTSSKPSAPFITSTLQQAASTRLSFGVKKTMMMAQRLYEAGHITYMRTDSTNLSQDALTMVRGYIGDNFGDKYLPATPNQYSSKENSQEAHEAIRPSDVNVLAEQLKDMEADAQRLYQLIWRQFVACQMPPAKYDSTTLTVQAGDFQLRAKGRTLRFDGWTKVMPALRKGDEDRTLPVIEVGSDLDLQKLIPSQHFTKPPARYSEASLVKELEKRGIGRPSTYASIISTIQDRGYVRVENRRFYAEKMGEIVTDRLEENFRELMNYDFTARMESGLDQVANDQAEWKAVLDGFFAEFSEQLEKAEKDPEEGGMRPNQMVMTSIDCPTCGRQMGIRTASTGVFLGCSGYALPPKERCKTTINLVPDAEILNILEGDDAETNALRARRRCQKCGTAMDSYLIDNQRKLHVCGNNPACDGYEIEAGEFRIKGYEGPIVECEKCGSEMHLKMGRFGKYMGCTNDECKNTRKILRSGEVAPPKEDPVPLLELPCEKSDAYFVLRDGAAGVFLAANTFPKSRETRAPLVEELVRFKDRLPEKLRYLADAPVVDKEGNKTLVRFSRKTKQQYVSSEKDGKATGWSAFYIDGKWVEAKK

Phospholipase D2 = Phospholipase D2 (Homo sapiens, UniProt O14939); assay: PLD2 inhibitor potency in cells, dose response (AID 602147); assay type: functional;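 also: cellular assay in HEK293 cells overexpressing GFP-tagged PLD2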
Phospholipase D1 = Phospholipase D1 (Homo sapiens, UniProt Q13393); assay: PLD1 inhibitor potency in cells, dose response (AID 602151); assay type: functional;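 also: cellular PLD1 assay in Calu-1 cells stimulated with PMA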
Chain of Phospholipase D1 (Q13393 whole entry): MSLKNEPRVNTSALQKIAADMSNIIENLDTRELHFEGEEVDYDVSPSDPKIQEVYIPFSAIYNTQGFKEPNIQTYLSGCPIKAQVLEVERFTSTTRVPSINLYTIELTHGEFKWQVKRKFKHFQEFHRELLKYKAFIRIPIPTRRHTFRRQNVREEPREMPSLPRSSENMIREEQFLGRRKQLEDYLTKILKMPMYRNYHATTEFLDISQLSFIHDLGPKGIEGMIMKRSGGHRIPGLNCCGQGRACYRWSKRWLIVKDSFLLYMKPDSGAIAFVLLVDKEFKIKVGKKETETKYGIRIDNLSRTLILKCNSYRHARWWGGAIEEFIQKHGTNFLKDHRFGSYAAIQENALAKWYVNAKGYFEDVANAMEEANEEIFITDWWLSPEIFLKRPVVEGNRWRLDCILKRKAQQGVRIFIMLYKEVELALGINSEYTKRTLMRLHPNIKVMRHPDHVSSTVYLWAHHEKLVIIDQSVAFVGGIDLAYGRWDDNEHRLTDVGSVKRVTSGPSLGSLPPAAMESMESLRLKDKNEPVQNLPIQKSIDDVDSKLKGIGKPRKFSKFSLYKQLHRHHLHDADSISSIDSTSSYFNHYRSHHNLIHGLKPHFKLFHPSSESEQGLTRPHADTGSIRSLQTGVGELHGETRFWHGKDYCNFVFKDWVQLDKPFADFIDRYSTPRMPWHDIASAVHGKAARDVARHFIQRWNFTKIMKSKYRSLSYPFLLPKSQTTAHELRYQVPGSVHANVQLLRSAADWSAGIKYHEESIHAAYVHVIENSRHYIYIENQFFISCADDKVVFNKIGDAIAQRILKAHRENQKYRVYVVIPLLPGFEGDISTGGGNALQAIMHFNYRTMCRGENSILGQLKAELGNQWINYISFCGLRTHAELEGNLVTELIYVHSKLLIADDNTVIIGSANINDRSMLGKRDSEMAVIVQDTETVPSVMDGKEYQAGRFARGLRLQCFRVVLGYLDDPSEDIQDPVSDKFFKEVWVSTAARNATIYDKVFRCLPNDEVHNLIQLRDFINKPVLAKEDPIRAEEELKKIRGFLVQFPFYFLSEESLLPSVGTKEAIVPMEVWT

HEK293 [1] = assay: SAR Analysis of small molecule inhibitors of both B-cell and T-cell specific antigen receptor-induced NF-kB activation in a HEK-293T cell line using a luminescence assay. [Related pubchem assays (depositor defined):AID435003, AID435022, AID465, AID489019, AID489029]; assay type: functional, cell-based; details: Homo sapiens
Jurkat = assay: SAR Analysis of small molecule inhibitors of both B-cell and T-cell specific antigen receptor-induced NF-kB activation in a Jurkat cell line using a luminescence assay. [Related pubchem assays (depositor defined):AID435003, AID435022, AID465, AID489029]; assay type: functional, cell-based; details: Homo sapiens
HEK293 [2] = assay: cytotoxicity in HEK293T NF-kB-Luc cells, SAR follow-up, cytotoxicity control for NF-kB activator project, cell-based, resazurin fluorescence (AID 493251); assay type: functional; details: Homo sapiens
[3] = molecular target: Sphingosine 1-phosphate receptor 2 (Homo sapiens, UniProt O95136); assay: Late-stage fluorescence-based dose-response cell-based counterscreen assay to identify agonists of the Sphingosine 1-Phosphate Receptor 3 (S1P3): Sphingosine 1-Phosphate Receptor 2 (S1P2) agonist assay.; assay type: functional
Chain of Sphingosine 1-phosphate receptor 2 (O95136 whole entry): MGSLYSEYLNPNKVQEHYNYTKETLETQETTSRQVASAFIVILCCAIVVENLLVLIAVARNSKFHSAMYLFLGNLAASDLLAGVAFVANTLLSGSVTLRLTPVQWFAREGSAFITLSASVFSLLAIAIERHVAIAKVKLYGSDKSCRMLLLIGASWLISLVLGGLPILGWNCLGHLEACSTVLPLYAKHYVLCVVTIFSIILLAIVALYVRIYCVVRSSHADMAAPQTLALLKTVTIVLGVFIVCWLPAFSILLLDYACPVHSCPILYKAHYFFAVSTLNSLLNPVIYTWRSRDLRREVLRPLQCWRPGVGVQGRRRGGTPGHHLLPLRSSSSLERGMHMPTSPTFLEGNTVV

[4] = molecular target: Sphingosine 1-phosphate receptor 4 (Homo sapiens, UniProt O95977); assay: Late-stage fluorescence-based dose-response cell-based counterscreen assay to identify agonists of the Sphingosine 1-Phosphate Receptor 3 (S1P3): Sphingosine 1-Phosphate Receptor 4 (S1P4) agonist assay.; assay type: functional
Chain of Sphingosine 1-phosphate receptor 4 (O95977 whole entry): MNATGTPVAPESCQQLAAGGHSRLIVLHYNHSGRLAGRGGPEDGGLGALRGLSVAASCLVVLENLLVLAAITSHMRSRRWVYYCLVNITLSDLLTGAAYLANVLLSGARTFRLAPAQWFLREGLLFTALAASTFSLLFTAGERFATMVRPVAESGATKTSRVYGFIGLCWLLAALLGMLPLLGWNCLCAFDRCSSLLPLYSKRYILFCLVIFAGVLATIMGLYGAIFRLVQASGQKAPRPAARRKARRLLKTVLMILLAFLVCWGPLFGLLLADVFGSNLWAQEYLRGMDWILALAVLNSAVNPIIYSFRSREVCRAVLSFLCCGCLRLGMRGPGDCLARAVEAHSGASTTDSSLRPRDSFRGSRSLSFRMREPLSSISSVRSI

Caspase-3 = molecular target: T2, Caspase-3 (Homo sapiens, UniProt P42574); assay: SAR Analysis of small molecule inhibitors of Sentrin-specific proteases (SENPs) using a Caspase-3 Selectivity assay. [Related pubchem assays (depositor defined):AID2540, AID2599, AID434973, AID489001]; assay type: functional
T2 sequence (P42574 whole entry): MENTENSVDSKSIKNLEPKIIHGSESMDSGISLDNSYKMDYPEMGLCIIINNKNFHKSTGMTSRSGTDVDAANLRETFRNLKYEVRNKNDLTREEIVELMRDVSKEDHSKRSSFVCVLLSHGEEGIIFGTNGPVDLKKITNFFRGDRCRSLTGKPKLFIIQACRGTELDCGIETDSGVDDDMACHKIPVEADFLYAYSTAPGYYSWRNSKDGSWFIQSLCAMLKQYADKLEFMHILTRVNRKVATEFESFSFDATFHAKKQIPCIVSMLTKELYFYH

[5] = molecular target: T3, Sentrin-specific protease 8 (Homo sapiens, UniProt Q96LD8); assay: SENP8 protease inhibitors, SAR follow-up, biochemical, luminescence (AID 504501); assay type: functional
T3 sequence (Q96LD8 whole entry): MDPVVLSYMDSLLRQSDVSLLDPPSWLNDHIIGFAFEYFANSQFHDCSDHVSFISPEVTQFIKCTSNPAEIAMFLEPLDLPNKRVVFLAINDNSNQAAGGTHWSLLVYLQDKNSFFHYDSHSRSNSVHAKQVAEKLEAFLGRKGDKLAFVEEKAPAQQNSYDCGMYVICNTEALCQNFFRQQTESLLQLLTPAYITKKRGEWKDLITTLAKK

[6] = molecular target: T4, Sentrin-specific protease 6 (Homo sapiens, UniProt Q9GZR1); assay: SAR Analysis of small molecule inhibitors of Sentrin-specific protease 6 (SENP6) using a Luminescent assay. [Related pubchem assays (depositor defined):AID2582, AID2599]; assay type: functional
T4 sequence (Q9GZR1 whole entry): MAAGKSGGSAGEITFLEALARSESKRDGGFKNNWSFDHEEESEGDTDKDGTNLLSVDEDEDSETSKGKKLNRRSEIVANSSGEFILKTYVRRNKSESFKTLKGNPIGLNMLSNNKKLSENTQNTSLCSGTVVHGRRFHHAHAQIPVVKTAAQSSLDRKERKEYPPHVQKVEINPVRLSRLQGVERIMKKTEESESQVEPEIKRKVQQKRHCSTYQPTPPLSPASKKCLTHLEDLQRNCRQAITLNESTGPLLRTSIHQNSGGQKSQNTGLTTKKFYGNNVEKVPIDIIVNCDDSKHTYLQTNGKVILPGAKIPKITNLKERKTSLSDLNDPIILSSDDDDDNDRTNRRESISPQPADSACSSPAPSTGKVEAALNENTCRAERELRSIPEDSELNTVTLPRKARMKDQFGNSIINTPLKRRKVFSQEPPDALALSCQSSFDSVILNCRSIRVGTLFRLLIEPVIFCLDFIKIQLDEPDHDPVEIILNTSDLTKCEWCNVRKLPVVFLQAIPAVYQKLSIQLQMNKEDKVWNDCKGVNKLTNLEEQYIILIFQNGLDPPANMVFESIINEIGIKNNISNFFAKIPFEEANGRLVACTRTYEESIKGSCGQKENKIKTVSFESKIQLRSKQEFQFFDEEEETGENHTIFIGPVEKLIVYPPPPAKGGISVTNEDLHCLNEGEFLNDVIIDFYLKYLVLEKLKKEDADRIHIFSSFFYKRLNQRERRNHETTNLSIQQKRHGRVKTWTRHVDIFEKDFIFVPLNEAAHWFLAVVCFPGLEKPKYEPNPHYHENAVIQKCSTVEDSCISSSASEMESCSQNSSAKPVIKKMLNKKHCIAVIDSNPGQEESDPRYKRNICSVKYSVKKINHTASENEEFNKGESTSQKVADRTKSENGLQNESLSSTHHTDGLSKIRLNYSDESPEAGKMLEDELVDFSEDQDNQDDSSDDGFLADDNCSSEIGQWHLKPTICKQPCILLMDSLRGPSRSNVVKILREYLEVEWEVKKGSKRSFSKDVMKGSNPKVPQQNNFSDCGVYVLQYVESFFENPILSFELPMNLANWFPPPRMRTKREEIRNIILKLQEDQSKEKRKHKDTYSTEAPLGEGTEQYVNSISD

[7] = molecular target: T5, Sentrin-specific protease 7 (Homo sapiens, UniProt Q9BQF6); assay: SENP7 protease inhibitors, SAR follow-up, biochemical, luminescence (AID 504497); assay type: functional
T5 sequence (Q9BQF6 whole entry): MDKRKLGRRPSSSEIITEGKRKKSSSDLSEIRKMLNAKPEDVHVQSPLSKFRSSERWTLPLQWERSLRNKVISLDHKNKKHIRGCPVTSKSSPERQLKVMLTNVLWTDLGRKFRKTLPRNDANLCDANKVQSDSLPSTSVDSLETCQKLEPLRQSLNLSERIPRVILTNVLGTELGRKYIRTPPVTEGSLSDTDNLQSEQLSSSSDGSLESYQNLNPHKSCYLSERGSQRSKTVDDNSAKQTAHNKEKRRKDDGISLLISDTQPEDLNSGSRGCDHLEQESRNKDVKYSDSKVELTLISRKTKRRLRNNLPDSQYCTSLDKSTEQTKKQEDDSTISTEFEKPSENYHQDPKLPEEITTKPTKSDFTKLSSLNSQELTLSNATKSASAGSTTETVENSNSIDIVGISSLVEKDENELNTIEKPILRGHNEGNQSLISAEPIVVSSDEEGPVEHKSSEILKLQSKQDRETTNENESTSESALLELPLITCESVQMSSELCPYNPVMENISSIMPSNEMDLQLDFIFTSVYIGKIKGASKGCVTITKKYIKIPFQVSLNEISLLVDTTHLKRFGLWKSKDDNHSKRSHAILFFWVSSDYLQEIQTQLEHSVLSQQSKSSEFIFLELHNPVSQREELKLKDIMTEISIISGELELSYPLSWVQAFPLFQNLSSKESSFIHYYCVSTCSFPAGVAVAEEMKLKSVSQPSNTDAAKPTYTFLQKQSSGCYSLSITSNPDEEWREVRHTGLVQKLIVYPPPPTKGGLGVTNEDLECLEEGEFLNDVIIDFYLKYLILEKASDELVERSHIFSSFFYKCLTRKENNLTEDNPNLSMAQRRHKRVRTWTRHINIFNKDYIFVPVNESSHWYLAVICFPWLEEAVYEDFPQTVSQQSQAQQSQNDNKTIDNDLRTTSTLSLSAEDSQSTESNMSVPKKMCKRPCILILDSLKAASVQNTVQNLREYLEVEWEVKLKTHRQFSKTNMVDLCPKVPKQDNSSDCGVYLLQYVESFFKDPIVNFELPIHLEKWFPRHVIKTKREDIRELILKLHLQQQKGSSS

[8] = molecular target: DNA dC->dU-editing enzyme APOBEC-3A (Homo sapiens, UniProt P31941); assay: SAR analysis of small molecule inhibitors of APOBEC3A DNA Deaminase via a fluorescence-based single-stranded DNA deaminase assay.; assay type: functional; details: read-out: IC50_Mean
Chain of DNA dC->dU-editing enzyme APOBEC-3A (P31941 whole entry): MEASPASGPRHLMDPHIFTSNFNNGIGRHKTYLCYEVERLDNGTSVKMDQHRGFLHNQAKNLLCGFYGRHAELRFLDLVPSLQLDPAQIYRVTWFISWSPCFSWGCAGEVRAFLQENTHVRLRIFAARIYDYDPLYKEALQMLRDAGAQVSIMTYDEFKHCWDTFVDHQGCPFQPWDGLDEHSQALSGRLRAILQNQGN

[9] = molecular target: DNA dC->dU-editing enzyme APOBEC-3G (Homo sapiens, UniProt Q9HC16); assay: APOBEC3G deaminase inhibitors, SAR follow-up, biochemical, fluorescence, single-stranded DNA substrate (AID 602136); assay type: functional; details: read-out: IC50_Mean
Chain of DNA dC->dU-editing enzyme APOBEC-3G (Q9HC16 whole entry): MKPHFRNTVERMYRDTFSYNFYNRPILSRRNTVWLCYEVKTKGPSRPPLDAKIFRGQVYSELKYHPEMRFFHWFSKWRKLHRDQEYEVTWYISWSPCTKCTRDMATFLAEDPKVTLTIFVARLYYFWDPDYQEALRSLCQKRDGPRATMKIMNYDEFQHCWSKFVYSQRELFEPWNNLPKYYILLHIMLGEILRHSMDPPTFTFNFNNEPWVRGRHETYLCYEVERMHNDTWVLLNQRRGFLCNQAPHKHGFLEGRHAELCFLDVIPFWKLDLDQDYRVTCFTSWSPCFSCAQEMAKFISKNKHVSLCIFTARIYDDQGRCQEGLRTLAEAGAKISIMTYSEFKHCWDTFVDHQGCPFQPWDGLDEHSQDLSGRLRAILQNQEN

Escherichia coli [10] = assay: microbe, parasite or virus in culture
[11] = Shn3 3'UTR reporter inhibitors, dose response, cell-based, Clone20 osteoblasts, firefly luciferase, cherry-picked (AID 624132); assay type: functional;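 also: firefly luciferase luminescence from reporter carrying the Shn3 3'UTR in osteoblasts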
Escherichia coli [12] = assay: microbe, parasite or virus in culture; remark: listed apart in the source
Vero = assay: cells; assay type: functional, cell-based; details: Chlorocebus sabaeus
[13] = control 3'UTR Renilla luciferase suppression, dose response, counter-screen for Shn3 inhibitor project, cell-based, Clone20-Shn3RL, cherry-picked (AID 624133); assay type: functional
[14] = molecular target: Heat shock protein HSP 90-alpha (Homo sapiens, UniProt P07900); assay type: functional, organism-based
[15] = HepG2 cell cytotoxicity, dose response, cytotoxicity control for Shn3 inhibitor project, CellTiter-Glo, cherry-picked (AID 624134); assay type: functional, cell-based
[16] = molecular target: Protein disulfide-isomerase (Homo sapiens, UniProt P07237); assay: PDI inhibitors, insulin aggregation turbidity, dose response, biochemical, absorbance, cherry-picked samples (AID 602350); assay type: functional
Chain of Protein disulfide-isomerase (P07237 whole entry): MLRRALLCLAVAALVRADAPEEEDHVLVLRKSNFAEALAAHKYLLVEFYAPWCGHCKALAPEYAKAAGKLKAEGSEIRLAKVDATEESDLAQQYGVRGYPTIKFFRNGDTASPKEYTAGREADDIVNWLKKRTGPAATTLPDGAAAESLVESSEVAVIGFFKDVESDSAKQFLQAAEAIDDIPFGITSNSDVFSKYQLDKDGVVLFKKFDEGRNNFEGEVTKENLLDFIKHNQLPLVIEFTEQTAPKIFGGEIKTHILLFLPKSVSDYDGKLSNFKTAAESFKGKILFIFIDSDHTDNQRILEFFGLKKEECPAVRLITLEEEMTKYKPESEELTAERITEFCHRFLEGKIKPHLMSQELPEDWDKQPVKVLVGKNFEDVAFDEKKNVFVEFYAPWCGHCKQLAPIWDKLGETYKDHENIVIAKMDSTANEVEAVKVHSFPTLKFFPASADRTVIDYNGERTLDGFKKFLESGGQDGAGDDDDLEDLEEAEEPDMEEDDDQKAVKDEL

For Cc1ccc(CSc2nnc(NC(=O)c3ccc4ncsc4c3)s2)cc1, the IC50 (Hexokinase HKDC1) was > 80 µM (inactive) and the IC50 (Hexokinase-1) was > 80 µM (inactive).

With COc1cc2ccccc2cc1C(=O)OCC(=O)N(CC(C)C)c1c(N)n(Cc2ccccc2)c(=O)[nH]c1=O the AC50 (DNA topoisomerase) was 20.8 µM (active).

In the case of O=C(NCCN1CCC(n2c(=O)[nH]c3ccccc32)CC1)c1cccc(F)n1, the IC50 (Phospholipase D2) is reported as 1.3 µM (active) and the IC50 (Phospholipase D1) is reported as 0.19 µM (active).

For Nc1cccc2cccnc12 [8-AMINOQUINOLINE], the IC50 (HEK293 [1]) was > 79 µM (inactive), the IC50 (Jurkat) was > 79 µM (inactive) and the IC50 (HEK293 [2]) was > 80 µM (inactive).

With CC1CCCCC1N(C(=O)c1cc(C2CC2)on1)C1CCCCC1 (centres undefined) the EC50 [3] was > 50 µM (inactive) and the EC50 [4] was > 50 µM (inactive).

For CC(C)CC(=O)Nc1ccc(-c2nc3cc(Cl)ccc3o2)cc1, the IC50 (Caspase-3) was 51.9 µM (active), the IC50 [5] was > 99 µM (inactive) and the IC50 [6] was > 99 µM (inactive). For the same molecule, the IC50 [7] was > 99 µM (inactive).

With Cn1c(SCC(=O)N(Cc2ccccc2)Cc2ccco2)nnc1-c1ccc(F)cc1 the IC50 [8] was > 99 µM (inactive) and the IC50 [9] was > 99 µM (inactive).

In the case of COc1cc2cc(C(=O)N3CC(COS(C)(=O)=O)c4ccc(O)cc43)[nH]c2c(OC)c1OC (centres undefined), the AC50 (Escherichia coli [10]) is reported as 22.8 µM (active), the AC50 [11] is reported as < 0.26 µM (active) and the AC50 (Escherichia coli [12]) is reported as 4.26 µM (active). For the same molecule, the IC50 (Vero) was 8.57 µM (active), the AC50 [13] was < 0.26 µM (active) and the AC50 [14] was 0.708 µM (active). The AC50 [15] was 0.352 µM (active) and the AC50 [16] was 18 µM (active).
